The source of these data is US20260137697A1, “THIAZOLO[5,4-D]PYRIMIDINE COMPOUNDS, COMPOSITIONS COMPRISING THEM AND USES THEREOF” (University de Montreal, priority 2022, published 2026).

The assay has as its target T1, ARAF (Homo sapiens, UniProt P10398).
T1 construct: ARAF kinase reactions were rigorously the same with the exception that kinase concentration was raised to 3.75 nM (cat. No. 1768-0000-1; Reaction Biology)
T1 sequence (P10398 303-606 limits assumed): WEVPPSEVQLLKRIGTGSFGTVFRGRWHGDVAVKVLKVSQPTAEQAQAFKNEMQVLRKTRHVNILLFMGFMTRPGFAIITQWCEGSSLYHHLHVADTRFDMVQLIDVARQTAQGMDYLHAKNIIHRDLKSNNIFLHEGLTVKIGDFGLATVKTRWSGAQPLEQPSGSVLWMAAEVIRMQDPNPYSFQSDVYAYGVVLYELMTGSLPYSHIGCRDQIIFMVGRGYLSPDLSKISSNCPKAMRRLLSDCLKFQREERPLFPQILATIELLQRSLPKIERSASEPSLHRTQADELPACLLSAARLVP
The assay is described as follows: ARAF kinase activity assay (AlphaLISA p-MEK 1/2). The class given is biochemical. The following applies: Table A; 10 μM ATP, kinase-dead MEK1 substrate. As for the experimental part:
Compound preparation: solid samples of each substance in 1dram vials were suspended in DMSO (Fisher Scientific) at a stock concentration of 20 mM. Stocks were kept at −20° C. and protected from light. If solubility of the compound at 20 mM appeared to be an issue, the initial concentration of the DMSO stock was changed to 10 mM or 5 mM.
In vitro enzymatic reactions were used for evaluating compounds intrinsic activity against BRAF, CRAF and ARAF. For BRAF and CRAF, 0.375 nM of purified GST-tagged kinases (cat. No. B4062-10UG and cat. No. R1656-10UG respectively from Millipore Sigma) were incubated with 75 nM of kinase-dead MEK1 substrate (cat. No. 40075; BPS Bioscience) in the presence of 10 μM of Ultrapure ATP (cat. No. V9102; Promega; part V915A) with and without the test compound in a buffer containing 50 mM HEPES pH 7.5, 10 mM MgCl2, 1 mM EDTA, 0.01% Brij-35 and 2 mM DTT. Separate reactions were performed with the MEK1 substrate and ATP as a blank control. ARAF kinase reactions were rigorously the same with the exception that kinase concentration was raised to 3.75 nM (cat. No. 1768-0000-1; Reaction Biology).
For compound treatment, 5 μL/well of test substance solution are placed in a 384-well proxyplate (Perkin Elmer) and mixed with 2× concentrated kinase reactions. The dilution series is selected so that nine concentrations cover a range from 100 nM to 0.01 nM. […] The final concentration of DMSO in the assay is set at 0.05%.
ARAF kinase reactions were carried out for a total of 2 hours at 30° C. and then stopped by addition of EDTA at a final concentration of 40 mM. Reactions were then detected using the AlphaLISA® SureFire® Ultra™ p-MEK 1/2 (Ser218/222) (PerkinElmer) kit. Reactions were performed with 5 μL of kinase reaction according to the manufacturer's specifications in 384-well proxyplates (Perkin Elmer) followed by overnight incubation of the AlphaLISA® reactions at room temperature in a humidified chamber. After completion of the detection reactions, the signals were recorded on a Synergy Neo2 plate reader (Biotek) equipped with AlphaLISA® filters. The effect of each compound dilution on the pMEK signal generated by ARAF reactions was expressed in % inhibition and calculated as follows. An internal 100% inhibition control (average of luminescence in kinase reactions comprising kinase dead MEK1 substrate alone) was included in each plate to measure of pMEK background and was subtracted from each data point. The average of DMSO (vehicle) controls (set as 0% inhibition) was also established and used to calculate % inhibition:
IC50 values were obtained by plotting the kinase inhibition values and fitting the dose-activity curves using a log(agonist) versus response—variable slope (four parameters) function using either GraphPadPrism (V7.0) or Dotmatics Screening Ultra platform. Standards included in the ARAF kinase assay were Belvarafenib (MedChem Express cat. No. HY-109080; CAS No. 1446113-23-0), LXH254 (MedChem Express cat. No. HY-112089; CAS No. 1800398-38-2) and BGB283 (cat. No. HY-18957; CAS No. 1446090-79-4).

A value given as a limit tells only on which side of the number the result lay.

Regarding `Cc1ccc2c(Nc3cccc(Cl)c3F)nccc2c1NC(=O)c1csc2c(N)ncnc12` [Belvarafenib, reference compound], the IC50 was greater than 10 nM.
Take `Cc1c(F)cccc1S(=O)(=O)Nc1ccc(F)c(Nc2ncnc3sc(-n4cc(C(=O)N5C6CCC5CN(C)C6)c5ccccc54)nc23)c1F` [Example 44]: the 50% inhibitory concentration (IC50) lay in the range of 1 to 10 nM.
As to `N#CC1(c2cccc3c2ncn3-c2nc3c(Nc4c(F)ccc(NS(=O)(=O)c5cccc(Cl)c5Cl)c4F)ncnc3s2)CC1` [Example 122], the half-inhibitory concentration (IC50) is 1 to 10 nM.

By IC50 is commonly meant the concentration that gives 50% inhibition.
